Values of other authors as cited in US20180035685A1, “ANTIMICROBIAL COMPOSITIONS” (priority 2015, published 2018).

Columns and labels:
Listeria = settings: pure form; Mandalari et al. (2007)
[1] = stored in cold; applied at 300 ppm

## COc1ccc([C@@H]2CC(=O)c3c(O)cc(O[C@@H]4O[C@H](CO)[C@@H](O)[C@H](O)[C@H]4O[C@@H]4O[C@@H](C)[C@H](O)[C@@H](O)[C@H]4O)cc3O2)cc1O [neohesperidin]
Listeria
  Effect on Listerial growth in vitro: no effect on Listerial growth

## O=c1oc2c(O)c(O)cc3c(=O)oc4c(O)c(O)cc1c4c23 [ellagic acid]
[1]
  Antimicrobial effect on raw beef MAP meat: no antimicrobial effect
